The text below walks through data of US7618968B2, “Aryl triazines as LPAAT-β inhibitors and uses thereof” (Cell Therapeutics, Inc., priority 2001, dated 2009).

This test concerns the target T1, LPAAT-β (Homo sapiens, UniProt O15120).
T1 construct: the full-length human LPAAT-β cDNA was amplified by PCR; poly-histidine tag (from pFastBac HTc vector) (N); made in house; host or cells: Sf9 insect cells (baculovirus); membrane fraction used
T1 sequence (O15120 24-278): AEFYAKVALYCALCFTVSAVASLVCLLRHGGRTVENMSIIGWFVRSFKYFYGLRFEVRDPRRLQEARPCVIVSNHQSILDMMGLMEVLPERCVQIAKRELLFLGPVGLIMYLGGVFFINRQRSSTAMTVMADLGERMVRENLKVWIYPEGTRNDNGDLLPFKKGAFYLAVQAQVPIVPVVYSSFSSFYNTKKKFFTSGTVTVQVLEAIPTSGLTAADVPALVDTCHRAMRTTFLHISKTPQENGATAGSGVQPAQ
Kind of test: LPAAT-β cell-free assay (colorimetric primary screen, radiometric/fluorescent TLC secondary assay). The settings on record: Sf9 cell membrane overexpressing LPAAT-β. The format is biochemical. From the text:
A. Production of Recombinant LPAAT-β for Assays
For the construction of Baculovirus expression vectors, the full-length human LPAAT-β cDNA was amplified by PCR from the DNA template pCE9.LPAAT-β (West et al., DNA Cell Biol. 16:691-701 (1997)) using the primers 5′-[…] […] […] […]-3′ (olpb1F; SEQ ID NO:1) and 5′-[…] […] […]-3′ (olpb1R; SEQ ID NO:2). The ˜870 bp fragment generated was reamplified by PCR using the primers 5′[…] […] […] […] ATC-3′ (olpb2F; SEQ ID NO:3) and 5′-[…] […] […]-3′ (olpb1R; SEQ ID NO:2). The ˜890 bp fragment generated was then cleaved with Sal I and Xba I for insertion into pFastBac™ HTc vector (Life Technologies, Gaithersberg, Md.) between the Sal I and Xba I sites for the generation of the plasmid pFB.LPAAT-β. This plasmid was then transformed into E. coli DH10Bac™ (Life Technologies, Gaithersberg, Md.) for the generation of recombinant Bacmid DNA for transfection in HighFive (Invitrogen, San Diego, Calif.) or SF9 insect cells for the production of recombinant Baculovirus stocks using the protocol described in the Bac-to-Bac® Baculovirus Expression System (Life Technologies, Gaithersberg, Md.), a eukaryotic expression system for generating recombinant baculovirus through site-specific transposition in E. coli. Viral stocks harvested from the transfected cells can then be used to infect fresh insect cells for the subsequence expression of LPAAT-β fusion protein with a poly-histidine tag and a myc-epitope near its N-terminus. The membrane fraction from these Sf9 cells would be the source of LPAAT enzyme.
B. Preparation of Cell Membranes from Sf9 Cells
For the preparation of membranes from Sf9 Cells, all steps are performed on ice or at 4° C. Sf9 cell pellets (˜10^8 cells) were thawed and resuspended in 1-2 ml of buffer A (20 mM Hepes, pH 7.5, 1 mM DTT, 1 mM EDTA, 20% w/v glycerol, 1 mM Benzamidine, 1 μg/ml soybean trypsin inhibitor (SBTI), 1 μg/ml pepstatin A) w/o DTT but with 1 mM Pefabloc. The cells were lysed by sonication using a Branson Sonifier at output=2, duty cycle=2, 10 pulses each at 10s. with the tip of small sonicator probe submerged but not touching the walls. DTT was then added to 1 mM from a 1 M stock. The samples were centrifuged at 1500 rpm for 5 min. The low speed supernatant was saved and centrifuged (TLA 100.3 rotor, polycarbonate tubes, 2 ml/tube or 1.5 ml/tube minimum) at 100000×g for 1 hr. The high speed pellet was resuspend in Buffer A with a probe sonicator (10 pulses @ output #2 and duty cycle 20%) as a source of LPAAT enzyme.
C. Assay of LPAAT-β Activity
LPAAT-β catalyzes the transfer of an acyl group from a donor such as acyl-CoA to LPA. The transfer of the acyl group from acyl-CoA to LPA leads to the release of free CoA, which can be reacted with the thiol reagent, 5,5′-dithiobis(2-nitrobenzoic acid) (DTNB). The reaction between DTNB and the free sulfhydryl group from CoA generates a yellow-colored product, 3-carboxylato-4-nitrothiophenolate (CNP), that absorbs at 413 nm. LPAAT-β derived from Sf9 cell membrane overexpressing LPAAT-β were resuspended in HEPES saline buffer (20 mM HEPES pH 7.5, 150 mM NaCl), 1 mg/ml BSA and 72 μl aliquots were distributed into 96-well microtiter plates. 8 μl of compound of interest at 200 μM dissolved in 100% DMSO was added into each well. 20 μl of 1 mM 18:1-CoA and 1 mM sn-1-18:1 lysoPA was then added to each well to initiate the reaction and allowed to run at room temperature for 25 min. 100 μl of 1 mM DTNB in 100% ethanol was then added to each well to quench the reaction and for color development. The absorbance at 405 nm, measured using a spectrophotometer plate reader, is proportional to the activity of LPAAT-β in the sample. This colorimetric assay was used for the high throughput screening of LPAAT inhibitors.
In the case of `Cc1ccc(Cl)cc1-c1nc(N)nc(Nc2ccc(CF)cc2)n1` [Example 68, 6-(5-Chloro-2-methyl-phenyl)-N-(4-fluoromethyl-phenyl)-[1,3,5]-triazine-2,4-diamine], 0.13 µM corresponded to half-maximal inhibition (IC50). For the compound `Cc1ccc(Cl)cc1-c1nc(N)nc(Nc2ccc(Cl)cc2)n1` [Example 9, 6-(5-Chloro-2-methylphenyl)-N-(4-Chlorophenyl)-[1,3,5]triazine-2,4-diamine], the IC50 (in general, the midpoint of a concentration-inhibition curve) worked out at 0.055 µM.

With `Nc1nc(Nc2ccc(Br)cc2)nc(-c2cc(Cl)ccc2C(F)(F)F)n1` [Example 40, N-(4-bromophenyl)-6-(5-chloro-2-trifluoromethylphenyl)-[1,3,5]triazine-2,4-diamine], the midpoint of inhibition, the IC50, lay at 2.6 µM.

`COc1ccc(Cl)cc1-c1nc(N)nc(Nc2ccc(Cl)c(Cl)c2)n1` [Example 8, 6-(5-Chloro-2-methoxyphenyl)-N-(3,4-dichlorophenyl)-[1,3,5]triazine-2,4-diamine] had a half-inhibitory concentration (IC50) of 0.14 µM. In the case of `COc1nc(Nc2ccc(Br)cc2)nc(-c2cc(Cl)ccc2C)n1` [Example 21] it was 0.2 µM. In the case of `Nc1nc(Nc2ccc(Cl)cc2)nc(-c2cccc(Cl)c2)n1` [Example 16, N-(4-chlorophenyl)-6-(3-chlorophenyl)-[1,3,5]triazine-2,4-diamine] it was 0.8 µM; in that of `Cc1ccc(Cl)cc1-c1nc(N)nc(Nc2ccc(CN(C)C)cc2)n1` [Example 58, 6-(5-Chloro-2-methyl-phenyl)-N-(4-dimethylaminomethyl-phenyl)-[1,3,5]triazine-2,4-diamine], 1.8 µM; in that of `Cc1ccc(Nc2nc(N)nc(-c3cc(Cl)ccc3C)n2)cc1` [Example 39, 6-(5-Chloro-2-methyl-phenyl)-N-p-tolyl-[1,3,5]triazine-2,4-diamine], 0.32 µM. In turn, `Cc1ccc(Cl)cc1-c1ncnc(Nc2ccc(Cl)cc2)n1` [Example 33, [6-(5-Chloro-2-methyl-phenyl)-[1,3,5]triazin-4-yl]-(4-chloro-phenyl)-amine] displayed a 50% inhibitory concentration (IC50) of 0.24 µM. This IC50 and that of the compound before are within 1.5-fold of each other. Take `COc1ccc(Cl)cc1-c1nc(N)nc(Nc2ccc(Cl)cc2)n1` [Example 1, 6-(5-Chloro-2-methoxyphenyl)-N-(4-chlorophenyl)-[1,3,5]triazine-2,4-diamine]: the IC50 is 0.057 µM. In the case of `COc1ccc(Cl)cc1-c1nc(N)nc(Nc2ccc(F)cc2)n1` [Example 15, 6-(5-Chloro-2-methoxyphenyl)-N-(4-fluorophenyl)-[1,3,5]triazine-2,4-diamine] it was 0.43 µM; in that of `NCc1nc(Nc2ccc(Br)cc2)nc(-c2cc(Cl)ccc2Cl)n1` [Example 27], 2.7 µM. In the case of `C=Cc1ccc(Nc2nc(N)nc(-c3cc(Cl)ccc3C)n2)cc1` [Example 67, 6-(5-Chloro-2-methyl-phenyl)-N-(4-vinyl-phenyl)-[1,3,5]triazine-2,4-diamine] it was 0.71 µM; in that of `Cc1ccc(Cl)cc1-c1nc(N)nc(Nc2ccc(COC(=O)[C@@H](N)CC(=O)O)cc2)n1` [Example 72, (S)-2-Amino-succinic acid 1-{4-[4-amino-6-(5-chloro-2-methyl-phenyl)-[1,3,5]triazin-2-ylamino]-benzyl}ester], 1.4 µM. In the case of `CCOc1ccc(Cl)cc1-c1nc(N)nc(Nc2ccc(Cl)cc2)n1` [Example 7, 6-(5-Chloro-2-ethoxyphenyl)-N-(4-Chlorophenyl)-[1,3,5]triazine-2,4-diamine] it was 0.14 µM; in that of `Cc1ccc(Nc2nc(N)nc(-c3cc(Cl)ccc3C)n2)cc1C` [Example 59, 6-(5-Chloro-2-methyl-phenyl)-N-(3,4-dimethyl-phenyl)-[1,3,5]triazine-2,4-diamine], 0.4 µM; in that of `Cc1ccc(Cl)cc1-c1nc(N)nc(Nc2ccc(COC(=O)[C@@H](N)CCCNC(=N)N)cc2)n1` [Example 75, (S)-2-Amino-5-guanidino-pentanoic acid 4-[4-amino-6-(5-chloro-2-methyl-phenyl)-[1,3,5]triazin-2-ylamino]-benzyl ester], 0.97 µM. Consider `Nc1nc(Nc2ccc(Cl)cc2)nc(-c2cc(C(F)(F)F)ccc2Cl)n1` [Example 81, N-(4-Chloro-phenyl)-6-(2-chloro-5-trifluoromethyl-phenyl)-[1,3,5]triazine-2,4-diamine], for which inhibition was half-maximal at 0.1 µM (IC50).

As to `Cc1ccc(Cl)cc1-c1nc(N)nc(Nc2ccc(COC(=O)[C@H](C)N)cc2)n1` [Example 77, 2-Amino-propionic acid 4-[4-amino-6-(5-chloro-2-methyl-phenyl)-[1,3,5]-triazin-2-ylamino]-benzyl ester], inhibition was half-maximal at 1.3 µM (IC50). Compared with the last compound, the IC50 is about 13-fold higher. In the case of `Cc1nc(Nc2ccc3cn[nH]c3c2)nc(-c2cc(Cl)ccc2C)n1` [Example 22, [4-(5-Chloro-2-methyl-phenyl)-6-methyl-[1,3,5]triazin-2-yl]-(1H-indazol-6-yl)-amine] it was 0.013 µM; in that of `CCc1cccc(Nc2nc(N)nc(-c3cc(Cl)ccc3C)n2)c1` [Example 66, 6-(5-Chloro-2-methyl-phenyl)-N-(3-ethyl-phenyl)-[1,3,5]triazine-2,4-diamine], 0.75 µM; in that of `Nc1nc(Nc2ccc(Br)cc2)nc(-c2cc(Cl)ccc2Cl)n1` [Example 12, N-2-(4-Bromophenyl)-6-(2,5-dichlorophenyl)-[1,3,5]triazine-2,4-diamine], 0.07 µM.

`Nc1nc(Nc2ccc3cn[nH]c3c2)nc(-c2cc(Cl)ccc2Cl)n1` [Example 48, 6-(2,5-Dichloro-phenyl)-N-(1H-indazol-6-yl)-[1,3,5]triazine-2,4-diamine] registered an IC50 of 0.11 µM. The compound `CCOc1ccc(Cl)cc1-c1nc(N)nc(Nc2ccc3c(c2)OCO3)n1` [Example 55, N-Benzo[1.3]dioxol-5-yl-6-(5-chloro-2-ethoxy-phenyl)[1,3,5]triazine-2,4-diamine] registered an IC50 of 0.8 µM. `Nc1nc(Nc2ccc3c(c2)OCO3)nc(-c2cc(Cl)ccc2Cl)n1` [Example 82, N-Benzo[1.3]dioxol-5-yl-6-(2,5-dichloro-phenyl)-[1,3,5]triazine-2,4-diamine] showed a 50% inhibitory concentration (IC50) of 0.3 µM. This IC50 lies about 2.7-fold lower than the previous one.

For the compound `CSc1nc(Nc2ccc(Br)cc2)nc(-c2cc(Cl)ccc2C)n1` [Example 29, (4-Bromo-phenyl)-[4-(5-chloro-2-methyl-phenyl)-6-methylsulfanyl-[1,3,5]triazin-2-yl]-amine], the IC50 is 1.1 µM. In the case of `Cc1nc(Nc2ccc(Br)cc2)nc(-c2cc(Cl)ccc2C)n1` [Example 23] it was 0.014 µM. In the case of `CCOc1ccc(Cl)cc1-c1nc(N)nc(Nc2ccc(CO)cc2)n1` [Example 53, {4-[4-Amino-6-(5-chloro-2-ethoxy-phenyl) [1,3,5]triazin-2-ylamino]-phenyl}-methanol] it was 1.8 µM; in that of `Nc1nc(Nc2ccc(Cl)cc2)nc(-c2cc(Cl)ccc2F)n1` [Example 85, 6-(5-Chloro-2-fluoro-phenyl)-N-(4-chloro-phenyl)-[1,3,5]triazine-2,4-diamine], 0.07 µM. Turning to `Cc1ccc(Cl)cc1-c1nc(C#N)nc(Nc2ccc(Br)cc2)n1` [Example 28], the midpoint of inhibition, the IC50, lay at 0.42 µM. Against the preceding compound, the IC50 is about 6-fold higher.
